# Literature values in patent US11338055B2, “Wound dressing” (Animal Ethics Pty Ltd, priority 2017, dated 2022).
# Details: typically up to about; depending on the method of administration
structure (smiles),measurement,value
CCCCN1CCCCC1C(=O)Nc1c(C)cccc1C (stereo not shown) [bupivacaine],duration of anaesthesia,6 to 12 h
